Results taken from patent US5334603A, “Composition and use of 3-phenyl-5-thiocyano-methylthio-1,3,4-thiadiazole-2(3h)thione” (The Dow Chemical Company, priority 1993, dated 1994).
Converted amounts (≈) assume the structure as drawn.

Legend:
Type in all cases: cell-based
Trichoderma viride (Tv) = experiment: Minimum inhibitory concentration (MIC), malt yeast agar; conditions: pH 5.5; ATCC 8678; 30° C.; 48 hours for yeast, 72 hours for fungi
Experimental: (§1) The minimum inhibitory concentration (MIC) for the compound is determined for 9 bacteria, using nutrient agar; and 7 yeast and fungi, using malt yeast agar. A one percent solution of the test compound is prepared in a mixture of acetone and water. Nutrient agar is prepared at pH 6.8, representing a neutral medium, and at pH 8.2, representing an alkaline medium. The nutrient agars are prepared by adding 23 g of nutrient agar to one-liter of deionized water. In addition, the alkaline medium is prepared by adjusting a 0.04M solution of N-[tris-(hydroxymethyl)methyl]-glycine buffered deionized water with concentrated sodium hydroxide to a pH of […]. Malt yeast agar is prepared by adding 3 g yeast extract and 45 g malt agar per liter of deionized water. The specific agar is dispensed in 30 ml aliquots into 25×200 mm test tubes, capped and autoclaved for 15 minutes at 115° C. The test tubes containing the agar are cooled in a water bath until the temperature of the agar is 48 ° C. Then, an appropriate amount of the one percent solution of the test compound is added (except in the controls where no compound is added) to the respective test tubes so that the final concentrations are 500, 250, 100, 50, 25, 10, 5, 2.5, 1.0 and zero parts per million of the test compound in the agar, thus having a known concentration of test compound dispersed therein. The contents of the test tubes are then transferred to respective petri plates. After drying for 24 hours, the petri plates containing nutrient agar are inoculated with bacteria and those containing malt yeast agar are inoculated with yeast and fungi.
(§2) The inoculation with the yeast and fungi is accomplished as follows. Cultures of yeast and fungi are incubated for seven days on malt yeast agar at 30° C. These cultures are used to prepare suspensions by the following procedure. A suspension of each organism is prepared by adding 10 ml of sterile saline and 10 microliters of octylphenoxy polyethoxy ethanol to the agar slant of yeast or fungi. The sterile saline/octylphenoxy polyethoxy ethanol solution is then agitated with a sterile swab to suspend the microorganism grown on the slant. Each resulting suspension is diluted into sterile saline (1 part suspension: 9 parts sterile saline). Aliquots of these dilutions are placed in individual wells of Steer's Replicator and petri plates inoculated as previously described. The petri plates are incubated at 30° C. and read after 48 hours for yeast and 72 hours for fungi.

Fusarium oxysporum (Fo) = experiment: as above; conditions: pH 5.5; ATCC 48112; 30° C.; 48 hours for yeast, 72 hours for fungi
Experimental: as §1, §2

[1] = test system: Aureobasidium pullulan (Ap); experiment: as above; conditions: pH 5.5; ATCC 16622; 30° C.; 48 hours for yeast, 72 hours for fungi
Experimental: as §1, §2

Candida Albicans (Ca) = experiment: as above; conditions: pH 5.5; ATCC 10231; 30° C.; 48 hours for yeast, 72 hours for fungi
Experimental: as §1, §2

Aspergillus niger (An) = experiment: as above; conditions: pH 5.5; ATCC 16404; 30° C.; 48 hours for yeast, 72 hours for fungi
Experimental: as §1, §2

[2] = test system: Penicillium chrysogenum (Pc); experiment: as above; conditions: pH 5.5; ATCC 9480; 30° C.; 48 hours for yeast, 72 hours for fungi
Experimental: as §1, §2

[3] = test system: Saccharomyces cerevisiae (Sc); experiment: as above; conditions: ATCC4105, pH 5.5, ATCC 4105, 30° C., 48 hours for yeast, 72 hours for fungi
Experimental: as §1, §2

Proteus vulgaris (Pv) = experiment: Minimum inhibitory concentration (MIC), nutrient agar; conditions: 48 hours
Experimental: as §1
(§3) The inoculation with bacteria is accomplished by using the following procedure. Twenty-four hour-cultures of each of the bacteria are prepared by incubating the respective bacteria in tubes containing nutrient broth for 24 hours at 30° C. in a shaker. Dilutions of each of the 24 hour-cultures are made so that nine separate suspensions (one for each of the nine test bacteria) are made, each containing 10^8 colony forming units (CFU) per ml of suspension of a particular bacteria. Aliquots of 0.3 ml of each of the bacterial suspensions are used to fill the individual wells of Steer's Replicator. For each microbial suspension, 0.3 ml was used to fill three wells (i.e., three wells of 0.3 ml each) so that for the nine different bacteria, 27 wells are filled. The Steer's Replicator is then used to inoculate both the neutral and alkaline pH nutrient agar petri plates.
(§4) The inoculated petri plates are incubated at 30° C. for 48 hours and then read to determine if the test compound which is incorporated into the agar prevented growth of the respective bacteria.

[4] = test system: Klebsiella pneumoniae (Kp); experiment: as above; conditions: 48 hours
Experimental: as §1, §3, §4

[5] = test system: Enterobacter aerogenes (Ea); experiment: as above; conditions: Klebsiella aerogenes, ATCC13048, ATCC 13048, 30° C., 48 hours
Experimental: as §1, §3, §4

[6] = test system: Pseudomonas aeruginosa (Pa); experiment: as above; conditions: 48 hours
Experimental: as §1, §3, §4

Bacillus subtilis (Bs) = experiment: as above; conditions: 48 hours
Experimental: as §1, §3, §4

[7] = test system: Staphylococcus aureus (Sa); experiment: as above; conditions: 48 hours
Experimental: as §1, §3, §4

Escherichia coli (Ec) = experiment: as above; conditions: 48 hours
Experimental: as §1, §3, §4

[8] = test system: Pseudomonas aeruginosa (PRD-10); experiment: as above; conditions: 48 hours
Experimental: as §1, §3, §4

[9] = test system: Salmonella choleraesuis (Sc); experiment: as above; conditions: Salmonella enterica, ATCC 10708 / CHOLERAESUIS, 48 hours
Experimental: as §1, §3, §4

`N#CSCSc1nn(-c2ccccc2)c(=S)s1` [INVENTION, 3-phenyl-5-thiocyanomethylthio-1,3,4-thiadiazole-2(3H)thione] showed an MIC (Trichoderma viride (Tv)) of 25 µg/mL (≈ 84 µM), an MIC (Fusarium oxysporum (Fo)) of 10 µg/mL (≈ 33.6 µM) and an MIC [1] of 2.5 µg/mL (≈ 8.4 µM). For the same compound, the MIC (Candida Albicans (Ca)) was 25 µg/mL (≈ 84 µM), the MIC (Aspergillus niger (An)) was 5 µg/mL (≈ 16.8 µM) and the MIC [2] was 2.5 µg/mL (≈ 8.4 µM). The MIC [3] was 5 µg/mL (≈ 16.8 µM), the MIC (Proteus vulgaris (Pv); ATCC881, pH 6.8, ATCC 881, 30° C.) was 100 µg/mL (≈ 336 µM) and the MIC (Proteus vulgaris (Pv); ATCC881, pH 8.2, ATCC 881, 30° C.) was 250 µg/mL (≈ 840 µM). For the same compound, the MIC ([4]; ATCC8308, pH 6.8, ATCC 8308, 30° C.) was 100 µg/mL (≈ 336 µM), the MIC ([4]; ATCC8308, pH 8.2, ATCC 8308, 30° C.) was 250 µg/mL (≈ 840 µM) and the MIC ([5]; pH 6.8) was 100 µg/mL (≈ 336 µM). For the same compound, the MIC ([5]; pH 8.2) was greater than 500 µg/mL, the MIC ([6]; ATCC10145, pH 6.8, ATCC 10145, 30° C.) was 50 µg/mL (≈ 168 µM) and the MIC ([6]; ATCC10145, pH 8.2, ATCC 10145, 30° C.) was 50 µg/mL (≈ 168 µM). The MIC (Bacillus subtilis (Bs); ATCC8473, pH 6.8, ATCC 8473, 30° C.) was 100 µg/mL (≈ 336 µM), the MIC (Bacillus subtilis (Bs); ATCC8473, pH 8.2, ATCC 8473, 30° C.) was less than 10 µg/mL and the MIC ([7]; ATCC6538, pH 6.8, ATCC 6538, 30° C.) was 100 µg/mL (≈ 336 µM). The MIC ([7]; ATCC6538, pH 8.2, ATCC 6538, 30° C.) was 250 µg/mL (≈ 840 µM), the MIC (Escherichia coli (Ec); ATCC11229, pH 6.8, ATCC 11229, 30° C.) was 100 µg/mL (≈ 336 µM) and the MIC (Escherichia coli (Ec); ATCC11229, pH 8.2, ATCC 11229, 30° C.) was 500 µg/mL (≈ 1680 µM). The MIC ([8]; ATCC15442, pH 6.8, ATCC 15442, 30° C.) was 50 µg/mL (≈ 168 µM), the MIC ([8]; ATCC15442, pH 8.2, ATCC 15442, 30° C.) was 100 µg/mL (≈ 336 µM) and the MIC ([9]; pH 6.8, 30° C.) was 100 µg/mL (≈ 336 µM). The MIC ([9]; pH 8.2, 30° C.) was 500 µg/mL (≈ 1680 µM).
